Holding throughout (type): in vivo
Conditions in all cases: 250 g/ha, after 13 days

In assay [1] the test system is Ipomoea hederacea (IPOHE). As to the kind of experiment: B4 Pre-Emergence Efficacy Test 2. On the procedure:
(§1) Seeds of a variety of test species were sown in standard soil in pots: Amaranthus retoflexus (AMARE), Setaria faberi (SETFA), Echinochloa crus-galli (ECHCG), Ipomoea hederacea (IPOHE), Zea Mays (ZEAMX), Abutilon theophrasti (ABUTH). After cultivation for one day (pre-emergence) under controlled conditions in a glasshouse (at 24/16° C., day/night; 14 hours light; 65% humidity), the plants were sprayed with an aqueous spray solution derived from the formulation of the technical active ingredient in acetone/water (50:50) solution containing 0.5% Tween 20 (polyoxyethelyene sorbitan monolaurate, CAS RN 9005-64-5). Compounds are applied at 250 g/ha. The test plants were then grown in a glasshouse under controlled conditions (at 24/16° C., day/night; 14 hours light; 65% humidity) and watered twice daily. After 13 days, the test is evaluated for the percentage damage caused to the plant. The biological activities are assessed on a five point scale (5=80-100%; 4=60-79%; 3=40-59%; 2=20-39%; 1=0-19%). A blank value in the table is indicative that the compound was not tested on that species.

For assay [2], the system named is Abutilon theophrasti (ABUTH). As to the kind of experiment: B4 Pre-Emergence Efficacy Test 2. On the procedure: as §1
In assay [3] the test system is Echinochloa crus-galli (ECHCG). As to the kind of experiment: B4 Pre-Emergence Efficacy Test 2. Here is the method:
as §1

Assay [4] relates to Zea Mays (ZEAMX). As to the kind of experiment: B4 Pre-Emergence Efficacy Test 2. Here is the method:
as §1

Assay [5] has as its system Setaria faberi (SETFA). As to the kind of experiment: B4 Pre-Emergence Efficacy Test 2. Here is the method:
as §1

Assay [6] has as its system Amaranthus retoflexus (AMARE). Briefly: B4 Pre-Emergence Efficacy Test 2. Here is the method: as §1
The test system of assay [7] is Ipomoea hederacea (IPOHE). Briefly: B2 Post-Emergence Efficacy Test 2. Here is the method:
(§2) Seeds of a variety of test species are sown in standard soil in pots:— Amaranthus retoflexus (AMARE), Setaria faberi (SETFA), Echinochloa crus-galli (ECHCG), Ipomoea hederacea (IPOHE), Zea Mays (ZEAMX), Abutilon theophrasti (ABUTH). After 8 days cultivation (post-emergence) under controlled conditions in a glasshouse (at 24/16° C., day/night; 14 hours light; 65% humidity), the plants are sprayed with an aqueous spray solution derived from the formulation of the technical active ingredient in acetone/water (50:50) solution containing 0.5% Tween 20 (polyoxyethylene sorbitan monolaurate, CAS RN 9005-64-5). Compounds are applied at 250 g/ha. The test plants are then grown in a glasshouse under controlled conditions in a glasshouse (at 24/16° C., day/night; 14 hours light; 65% humidity) and watered twice daily. After 13 days, the test is evaluated for the percentage damage caused to the plant. The biological activities are assessed on a five point scale (5=80-100%; 4=60-79%; 3=40-59%; 2=20-39%; 1=0-19%). A blank value in the table is indicative that the compound was not tested on that species.

For assay [8], the system named is Abutilon theophrasti (ABUTH). As to the kind of experiment: B2 Post-Emergence Efficacy Test 2. On the procedure:
as §2

In assay [9] the test system is Echinochloa crus-galli (ECHCG). Briefly: B2 Post-Emergence Efficacy Test 2. Here is the method: as §2
Assay [10] deals with Zea Mays (ZEAMX). Briefly: B2 Post-Emergence Efficacy Test 2. On the procedure: as §2
In assay [11] the test system is Setaria faberi (SETFA). As to the kind of experiment: B2 Post-Emergence Efficacy Test 2. On the procedure: as §2
Assay [12] has as its system Amaranthus retoflexus (AMARE). Briefly: B2 Post-Emergence Efficacy Test 2. Here is the method: as §2

Consider `Cc1nn(C)c(=O)c(-c2c(F)ccc(Cl)c2CCc2ccc3ccsc3c2)c1O` [Compound 1.347], for which the “percentage damage caused to the plant, five point scale, IPOHE” value (“percentage damage caused … IPOHE” below) in assay [1] is given as 5 (5=80-100%); in assay [7], 4 (4=60-79%). In addition, the “percentage damage caused to the plant, five point scale, ABUTH” value (“percentage damage caused … ABUTH” for short) in assay [2] is given as 5 (5=80-100%); in [8], 4 (4=60-79%). Besides, the “percentage damage caused to the plant, five point scale, ECHCG” value (from here on “percentage damage caused … ECHCG”) is reported as 2 (2=20-39%) in assay [3] and 4 (4=60-79%) in [9]. The results for the “percentage damage caused to the plant, five point scale, ZEAMX” value (from here on “percentage damage caused … ZEAMX”) in the assay with Zea Mays (ZEAMX) [4] and with Zea Mays (ZEAMX) [10] were 3 (3=40-59%) and 4 (4=60-79%), respectively. Also, the “percentage damage caused to the plant, five point scale, SETFA” value (from here on “percentage damage caused … SETFA”) is recorded as 3 (3=40-59%) in the assay on Setaria faberi (SETFA) [5] and 4 (4=60-79%) in the assay with Setaria faberi (SETFA) [11]. Also, the “percentage damage caused to the plant, five point scale, AMARE” value (from here on “percentage damage caused … AMARE”) in assay [6] is 5 (5=80-100%); in assay [12] it was 4 (4=60-79%).
In the case of `Cc1nn(C)c(=O)c(-c2c(F)ccc(Cl)c2CCc2ccc3cnn(C)c3c2)c1O` [Compound 1.353], the figures for the “percentage damage caused … IPOHE” value in assay [1] and in assay [7] were 5 (5=80-100%) and 3 (3=40-59%), respectively. In addition, the “percentage damage caused … ABUTH” value in assay [2] and in assay [8] was 4 (4=60-79%) each time. In addition, the “percentage damage caused … ECHCG” value in [3] was 5 (5=80-100%); in assay [9], 4 (4=60-79%). In addition, the “percentage damage caused … ZEAMX” value is given as 4 (4=60-79%) with Zea Mays (ZEAMX) [4] and 3 (3=40-59%) in the assay with Zea Mays (ZEAMX) [10]. The “percentage damage caused … SETFA” value was 5 (5=80-100%) in the assay with Setaria faberi (SETFA) [5] and 4 (4=60-79%) in the assay with Setaria faberi (SETFA) [11]. Besides, the “percentage damage caused … AMARE” value is given as 5 (5=80-100%) in assay [6] and 4 (4=60-79%) in [12].
Turning to `Cc1nn(C)c(=O)c(-c2c(F)ccc(Cl)c2CCc2ccc3c(C)noc3c2)c1O` [Compound 1.351], the “percentage damage caused … IPOHE” value in assay [1] and in assay [7] was 5 (5=80-100%) throughout. For the same compound, the “percentage damage caused … ABUTH” value in assay [2] and in assay [8] was 5 (5=80-100%) in each case. Further, the “percentage damage caused … ECHCG” value in [3] was 5 (5=80-100%); in assay [9] it was 4 (4=60-79%). Moreover, the “percentage damage caused … ZEAMX” value in the assay with Zea Mays (ZEAMX) [4] and with Zea Mays (ZEAMX) [10] was 5 (5=80-100%) in each case. In addition, the “percentage damage caused … SETFA” value with Setaria faberi (SETFA) [5] is on record as 5 (5=80-100%); in the assay on Setaria faberi (SETFA) [11], 4 (4=60-79%). Further, the “percentage damage caused … AMARE” value in assay [6] and in assay [12] was 5 (5=80-100%) each time.
In the case of `Cc1nn(C)c(=O)c(-c2c(F)ccc(Cl)c2CCc2ccc3ccn(C)c3c2)c1O` [Compound 1.355], the entries for the “percentage damage caused … IPOHE” value in assay [1] and in assay [7] were 2 (2=20-39%) and 4 (4=60-79%), respectively. Moreover, the entries for the “percentage damage caused … ABUTH” value in [2] and in [8] were 0 and 3 (3=40-59%), respectively. For the same compound, the “percentage damage caused … ECHCG” value in assay [3] is 0; in assay [9], 1 (1=0-19%). The “percentage damage caused … ZEAMX” value with Zea Mays (ZEAMX) [4] and with Zea Mays (ZEAMX) [10] was 1 (1=0-19%) in each case. The results for the “percentage damage caused … SETFA” value with Setaria faberi (SETFA) [5] and in the assay on Setaria faberi (SETFA) [11] were 1 (1=0-19%) and 2 (2=20-39%), respectively. The “percentage damage caused … AMARE” value in [6] is 3 (3=40-59%); in [12] it was 4 (4=60-79%).

The values above are taken from patent US12540128B2, “Substituted pyridazinones as herbicides” (SYNGENTA CROP PROTECTION AG, priority 2019, dated 2026).
